Among the data in PubChem BioAssay AID1259411 (Chemical Carcinogenesis Research Information System (CCRIS), 2018) are carcinogen call values, retold here.

The source made the active and inactive calls. The rule behind the calls is not given here.

This data set relates to rodent carcinogenicity bioassays, tumor incidence. The data set can be described thus: CCRIS carcinogenicity studies. Conditions: Dose: 0, Dose: 0. An outline of the steps: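 NCI-built, expert-reviewed records of carcinogenicity and related test outcomes (mutagenicity, tumor promotion/inhibition) compiled from published and report sources, historical span 1985-2011, not updated.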

Regarding `CSC(=O)c1cccc2nnsc12`, the carcinogen call was “inactive; negative” (Species: Mouse, Strain/Sex: Tif:MAGf (SPF) (NIH x MAG hybrid)/Female, Route: Oral (diet), 10, 100, 2000, 6000 ppm (0; 1.14; 10.8; 234; 696 mg/kg/day) for 18 mo, 10, 100, 2000, 6000 ppm (0; 1.14; 10.8; 234; 696 mg/kg/day) for 18 mo); “inactive; negative” (Species: Mouse, Strain/Sex: Tif:MAGf (SPF) (NIH x MAG hybrid)/Male, Route: Oral, 10, 100, 2000, 6000 ppm (0; 1.14; 11.1; 237; 698 mg/kg/day) in feed for 18 mo, 10, 100, 2000, 6000 ppm (0; 1.14; 11.1; 237; 698 mg/kg/day) in feed for 18 mo); “inactive; negative” (Species: Rat, Strain/Sex: Tif:Ralf (SPF) (Rll/1 x Rll/2 hybrid)/Female, Route: Oral, 20, 200, 2500, 7500 ppm (0; 0.90; 9.08; 111; 388 mg/kg/day) in feed for 2 yr, 20, 200, 2500, 7500 ppm (0; 0.90; 9.08; 111; 388 mg/kg/day) in feed for 2 yr); “active; positive; dpr reviewer notes that only 1 case of mucinous carcinoma has been see” (Species: Rat, Strain/Sex: Tif:Ralf (SPF) (Rll/1 x Rll/2 hybrid)/Male, Route: Oral, 20, 200, 2500, 7500 ppm (0; 0.77; 7.77; 96.9; 312 mg/kg/day) in feed for 2 years, 20, 200, 2500, 7500 ppm (0; 0.77; 7.77; 96.9; 312 mg/kg/day) in feed for 2 years, Tumor Site: Type of Lesion: Small intestine: Mucinous carcinoma (1/60; 1/59; 2/59 at three highest doses)).
Turning to `Clc1ccc(Cl)cc1`, the carcinogen call reads like this: (Species: MOUSE, Strain/Sex: B6C3F1/FEMALE, Route: GAVAGE, 300, 600 MG/KG IN CORN OIL 5 D/WK FOR 103 WK, 300, 600 MG/KG IN CORN OIL 5 D/WK FOR 103 WK, Tumor Site: Type of Lesion: LIVER: HEPATOCELLULAR ADENOMA, HEPATOCELLULAR CARCINOMA) “active; positive”; (Species: MOUSE, Strain/Sex: B6C3F1/MALE, Route: GAVAGE, 300, 600 MG/KG IN CORN OIL 5 D/WK FOR 103 WK, 300, 600 MG/KG IN CORN OIL 5 D/WK FOR 103 WK, Tumor Site: Type of Lesion: LIVER: HEPATOCELLULAR ADENOMA, HEPATOCELLULAR CARCINOMA) “active; positive”; (Species: MOUSE, Strain/Sex: CRJ:BDF1/FEMALE, Route: INHALATION, 20, 75, 300 PPM 6 HR/D, 5 D/WK FOR 2 YRS (STUDY DURATION: 2 YRS), 20, 75, 300 PPM 6 HR/D, 5 D/WK FOR 2 YRS (STUDY DURATION: 2 YRS), Tumor Site: Type of Lesion: LIVER: HEPATOCELLULAR ADENOMA, LIVER: HEPATOCELLULAR CARCINOMA, LIVER: HEPATOBLASTOMA, Tumor Site: Type of Lesion: LIVER: HEPATOCELLULAR ADENOMA, LIVER: HEPATOCELLULAR CARCINOMA, LIVER: HEPATOBLASTOMA) “active; positive”; (Species: MOUSE, Strain/Sex: CRJ:BDF1/MALE, Route: INHALATION, 20, 75, 300 PPM 6 HR/D, 5 D/WK FOR 2 YRS (STUDY DURATION: 2 YRS), 20, 75, 300 PPM 6 HR/D, 5 D/WK FOR 2 YRS (STUDY DURATION: 2 YRS), Tumor Site: Type of Lesion: LIVER: HEPATOCELLULAR CARCINOMA, LIVER: HEPATOBLASTOMA, HISTIOCYTIC SARCOMA, Tumor Site: Type of Lesion: LIVER: HEPATOCELLULAR CARCINOMA, LIVER: HEPATOBLASTOMA, HISTIOCYTIC SARCOMA) “active; positive”; (Species: RAT, Strain/Sex: F344/FEMALE, Route: GAVAGE, 300, 600 MG/KG IN CORN OIL 5 D/WK FOR 103 WK, 300, 600 MG/KG IN CORN OIL 5 D/WK FOR 103 WK) “inactive; negative”; (Species: RAT, Strain/Sex: F344/MALE, FEMALE, Route: INHALATION, 20, 75, 300 PPM 6 HR/D, 5 D/WK FOR 2 YRS (STUDY DURATION: 2 YRS), 20, 75, 300 PPM 6 HR/D, 5 D/WK FOR 2 YRS (STUDY DURATION: 2 YRS)) “inactive; negative”. Further, where the note is “Species: RAT, Strain/Sex: F344/MALE, Route: GAVAGE, 150, 300 MG/KG IN CORN OIL 5 D/WK FOR 103 WK, 150, 300 MG/KG IN CORN OIL 5 D/WK FOR 103 WK, Tumor Site: Type of Lesion: KIDNEY: TUBULAR CELL ADENOCARCINOMA, TUBULAR CELL ADENOMA OR ADENOCARCINOMA”, the carcinogen call was “active; positive”.
Turning to `Cc1c(C)c2c3c(ccc2c2ccccc12)[C@@H](O)[C@H](O)[C@@H]1O[C@H]31`, the carcinogen call by setting is: (Species: MOUSE, Strain/Sex: ICR/FEMALE, Route: INTRAPERITONEAL, 8 NMOL IN 5 µL DMSO TO PUPS ON D 1/OF LIFE THEN 16 NMOL IN 10 µL ON D 8 AND 3 NMOL IN 20 µL D 15 (STUDY DURATION: 35, Tumor Site: Type of Lesion: LUNG: TUMOR) “active; positive”; (Species: MOUSE, Strain/Sex: ICR/MALE, Route: INTRAPERITONEAL, 8 NMOL IN 5 µL DMSO TO PUPS ON D 1/OF LIFE THEN 16 NMOL IN 10 µL ON D 8 AND 3 NMOL IN 20 µL ON D 15 (STUDY DURATION:, Tumor Site: Type of Lesion: LUNG: TUMOR, LIVER: TUMOR) “active; positive”.
For `C/C=C/c1ccc(OC)cc1`, the carcinogen call (Species: MOUSE, Strain/Sex: B6C3F1/MALE, Route: INTRAPERITONEAL, 0.5 UMOL/G BW ONCE (STUDY DURATION: 10-11 MONTHS)) is “inactive; negative”; the carcinogen call (Species: MOUSE, Strain/Sex: CD-1/FEMALE, Route: DERMAL, 5 UMOL 1X/WK FOR 3 WK BEGINNING 24 HR POST FIRST TPA DOSE (2.5 UG IN 0.1 ML ACETONE), FOLLOWED BY 2.5 UG TPA IN 0.1 M, Tumor Site: Type of Lesion: SKIN: PAPILLOMA) is “inactive; negative”; the carcinogen call (Species: RAT, Strain/Sex: SPRAGUE-DAWLEY/FEMALE, Route: ORAL, 0.25, 0.5, 1% IN DIET FOR 117 WK (STUDY DURATION: 121 WK), 0.25, 0.5, 1% IN DIET FOR 117 WK (STUDY DURATION: 121 WK), Tumor Site: Type of Lesion: LIVER: HEPTOCELLULAR CARCINOMA) was “active; positive”; the carcinogen call (Species: RAT, Strain/Sex: SPRAGUE-DAWLEY/MALE, Route: ORAL, 0.25, 0.5, 1.0% IN DIET FOR 117 WK (STUDY DURATION: 121 WK), 0.25, 0.5, 1.0% IN DIET FOR 117 WK (STUDY DURATION: 121 WK)) was “inactive; negative”.
